We go through 29 compounds from ChEMBL document CHEMBL3879908, “Pyrrolidinone carboxamide derivatives” (2014).

This experiment has as its target T1, Chemerin-like receptor 1 (Homo sapiens, UniProt Q99788).
T1 sequence (Q99788 whole entry): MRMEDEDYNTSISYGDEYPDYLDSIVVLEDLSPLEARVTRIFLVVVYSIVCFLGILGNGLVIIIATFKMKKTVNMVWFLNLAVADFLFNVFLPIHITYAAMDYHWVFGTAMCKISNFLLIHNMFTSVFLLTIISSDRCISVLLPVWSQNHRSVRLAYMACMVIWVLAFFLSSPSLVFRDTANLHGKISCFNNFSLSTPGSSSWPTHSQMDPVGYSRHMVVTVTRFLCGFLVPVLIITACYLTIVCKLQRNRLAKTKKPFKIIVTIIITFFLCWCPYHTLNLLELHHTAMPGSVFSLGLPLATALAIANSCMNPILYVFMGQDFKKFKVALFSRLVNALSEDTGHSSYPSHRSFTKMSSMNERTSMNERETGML
As to the kind of experiment: Displacement of [125I]-chemerin from ChemR23 (unknown origin) transfected in mouse BaF3 cells after 3 hrs by scintillation counting method. The format is cell-based. A general note: In a radioligand displacement assay an active substance lowers the binding of a labelled ligand.
Compound `Cc1cccc(Br)c1N1CC(C(=O)Nc2cccc(C(F)(F)F)c2)CC1=O` (centres undefined) showed an IC50 of 300 to 6000 nM.
Consider `Cc1cccc(C)c1N1CC(C(=O)Nc2cc(C(F)(F)F)cc(C(F)(F)F)c2)(C(C)N2CCCC2)CC1=O` (centres undefined), for which the concentration for half-maximal inhibition (IC50) is 300 to 6000 nM.
Compound `CC[C@]1(C(=O)Nc2cc(Cl)cc(C(F)(F)F)c2)CC(=O)N(c2c(C)cccc2C)C1` returned an IC50 of 30 to 300 nM.
In turn, `COCC(C)(C)N(C)C[C@@]1(C(=O)Nc2cc(C(F)(F)F)cc(C(F)(F)F)c2)CN(c2c(C)cccc2C)C(=O)[C@H]1C` returned an IC50 of no more than 30 nM.
As for `C=CCC1C(=O)N(c2c(C)cccc2C)CC1(CC=C)C(=O)Nc1cc(C(F)(F)F)cc(C(F)(F)F)c1` (centres undefined), the figure is no more than 30 nM; as for `Cc1cccc(C)c1N1C[C@@](CN(CCF)CCF)(C(=O)Nc2cc(C(F)(F)F)cc(C(F)(F)F)c2)[C@H](C)C1=O`, no more than 30 nM; as for `C=CCc1cccc(C)c1N1CC(C(=O)Nc2cc(C(F)(F)F)cc(C(F)(F)F)c2)(C(C)C)CC1=O` (centres undefined), no more than 30 nM.
In the case of `CC[C@@]1(C(=O)Nc2cc(C(F)(F)F)cc(C(F)(F)F)c2)CC(=O)N(c2c(C)cccc2C)C1`, the IC50 was in the range of 30 to 300 nM.
Next, `Cc1ccccc1N1CC(C)(C(=O)Nc2cc(C(F)(F)F)cc(C(F)(F)F)c2)CC1=O` (centres undefined): no more than 30 nM; `Cc1ccccc1N1CC(C)(C(=O)Nc2cc(C(F)(F)F)cc(C(F)(F)F)c2)C(C)C1=O` (centres undefined): no more than 30 nM; `Cc1cccc(C)c1N1CC(CN(C)C)(C(=O)Nc2cc(C(F)(F)F)cc(C(F)(F)F)c2)CC1=O` (centres undefined): 30 to 300 nM.
The compound `CCc1cc(NC(=O)[C@]2(CN3CCC(F)(F)CC3)CN(c3c(C)cccc3C)C(=O)[C@H]2C)cc(C(F)(F)F)c1` returned an IC50 of 30 to 300 nM.
In turn, `Cc1cc(F)cc(C)c1N1CC(C(=O)Nc2cc(C(F)(F)F)cc(C(F)(F)F)c2)CC1=O` (centres undefined) returned a 50% inhibitory concentration (IC50) of 30 to 300 nM.
As for `Cc1cccc(C)c1N1C[C@@](CN2CCCCC2)(C(=O)Nc2cc(C3CC3)cc(C(F)(F)F)c2)[C@H](C)C1=O`, the IC50 fell in the range of 30 to 300 nM.
`Cc1cccc(C)c1N1C[C@](C(=O)Nc2cc(C(F)(F)F)cc(C(F)(F)F)c2)(N(C)C)CC1=O` returned an IC50 of no more than 30 nM.
Regarding `CCc1cccc(C)c1N1CC(C(=O)Nc2ccc(OC)c(C(F)(F)F)c2)CC1=O` (centres undefined), the half-maximal inhibitory concentration (IC50) was 300 to 6000 nM.
With `CCN(C)C[C@@]1(C(=O)Nc2cc(C#N)cc(C(F)(F)F)c2)CN(c2c(C)cccc2C)C(=O)[C@H]1C`, the IC50 was no more than 30 nM.
`Cc1cccc(C)c1N1C[C@](C(=O)Nc2cc(NC(C)C)cc(C(F)(F)F)c2)(C(C)C)[C@H](C)C1=O` showed an IC50 of 30 to 300 nM.
As for `Cc1cccc(C)c1N1C[C@@](CN(C)CC(C)C)(C(=O)Nc2cc(C3CC3)cc(C(F)(F)F)c2)[C@H](C)C1=O`, the figure is 30 to 300 nM; as for `Cc1cccc(C)c1N1CC(C(=O)Nc2cc(C(F)(F)F)cc(C(F)(F)F)c2)(C2CCN(C)CC2)CC1=O` (centres undefined), 300 to 6000 nM.
As for `Cc1cccc(C)c1N1C[C@@](CN2CCC(F)(F)CC2)(C(=O)Nc2cc(C(F)(F)F)cc(C(F)(F)F)c2)[C@H](C)C1=O`, the IC50 was no more than 30 nM.
In turn, `CC[C@]1(C(=O)Nc2cc(C(F)(F)F)cc(C(F)(F)F)c2)CC(=O)N(c2c(C)cccc2C)C1` yielded an IC50 of no more than 30 nM.
Consider `CO[C@H]1CC2C(=O)N(c3c(C)cccc3C)CC2(C(=O)Nc2cc(C(F)(F)F)cc(C(F)(F)F)c2)C1` (some centres undefined), for which the IC50 was no more than 30 nM.
As for `Cc1cccc(Br)c1N1CC(C(=O)Nc2cc(C(F)(F)F)cc(C(F)(F)F)c2)(C(C)C)CC1=O` (centres undefined), the figure is no more than 30 nM.
The compound `CC[C@@]1(C(=O)Nc2cc(Cl)cc(C#N)c2)CN(c2c(C)cccc2C)C(=O)[C@H]1C` returned an IC50 of 30 to 300 nM.
As for `CCC[C@@]1(C(=O)Nc2cc(C(F)(F)F)cc(C(F)(F)F)c2)CN(c2c(C)cccc2C)C(=O)[C@H]1C`, the figure is no more than 30 nM; as for `Cc1cccc(C)c1N1C[C@@](CN(C)C(C)(C)CO)(C(=O)Nc2cc(C(F)(F)F)cc(C(F)(F)F)c2)[C@H](C)C1=O`, 30 to 300 nM.
`Cc1cccc(C)c1N1CC(C(=O)Nc2cc(C(F)(F)F)cc(C(F)(F)F)c2)(C2=CCNCC2)CC1=O` (centres undefined) returned an IC50 of 300 to 6000 nM.
In the case of `Cc1cccc(C)c1N1C[C@@](CN(C)C2CCC2)(C(=O)Nc2cc(C(F)(F)F)cc(C(F)(F)F)c2)[C@H](C)C1=O`, the concentration for half-maximal inhibition (IC50) is no more than 30 nM.

By IC50 is commonly meant the midpoint of a concentration-inhibition curve. A lower IC50 goes with greater potency in that assay.
